Format in all cases: in vivo, male C57/BL mice
In assay [1] the test system is MCAO model mice. Put plainly: Survival curve after ischemia-reperfusion. The settings on record: 100 mg/kg tail vein. The protocol: (§1) Grouping and administration method: Male C57/BL mice weighing 23±1 g were randomly divided into sham operation group (SHAM), model group (MCAO), compound 2 group (100 mg/kg), and compound 1 group (50 mg/kg), with 10 mice in each group. Mice in the SHAM group underwent vascular isolation, but no […] was administered, and no treatment was given before or after surgery. The model group mice were constructed with MCAO models and were not treated before and after surgery. The treatment group was treated with compound 2 or compound 1 on the basis of the model group. Mice with a neurological score of 0 after reperfusion and those that died before 72 hours post-surgery were excluded. The administration time for animal behavior tests was seven times at 0 h, 1 day, 2 days, 3 days, 4 days, 5 days, and 6 days after reperfusion, while the administration time for other experiments was three times at 0 h, 1 day, and 2 days after reperfusion. The drug was administered through the tail vein, and the sham operation group and model group were given equal amounts of saline.
At the same time, the weight change and survival rate of mice after ischemia-reperfusion were analyzed.

The subject of assay [2] is IL-1β. Put plainly: RT-qPCR of IL-1β mRNA in brain tissue. The settings on record: 72 h, three days of administration, compound 2 100 mg/kg, P<0.01. The procedure: as §1, with “The administration time for animal behavior tests was seven times at 0 h, 1 day, 2 days, 3 days, 4 days, 5 days, and 6 days after reperfusion, while the administration time for other experiments was three times at 0 h, 1 day, and 2 days after reperfusion. The drug was administered through the tail vein, and the sham operation group and model group were given equal amounts of saline.” left out
(§2) To investigate the effect of compounds on the expression of inflammatory factors after ischemia-reperfusion, this study used immunofluorescence experiments to observe the expression of TNF-α, IL-1β, IL-6, iNOS, and COX2 proteins in brain tissue. […] The concentrations of TNF-α, IL-1β, and IL-6 in brain homogenate were detected by enzyme-linked immunosorbent assay (ELISA), and the expression level of TNF-α protein in brain tissue was detected by Western blot.
(§3) After 72 hours of ischemia-reperfusion, the mRNA expression levels of TNF-α, IL-1β, IL-6, iNOS, and COX2 in brain tissue were detected and analyzed by RT-qPCR. […]
(In general: Real-time PCR tracks product formation cycle by cycle.)

For assay [3], the system named is MCAO model mice. The assay is described as follows: Cerebral infarction volume by TTC staining in MCAO model mice. The settings on record: for Cerebral infarction volume reduced compared with the model group: mean±SEM. The protocol: (§4) Male C57/BL mice weighing 23±1 g were randomly divided into sham operation group (SHAM), model group (MCAO) and drug administration groups (50 mg/kg, 100 mg/kg, 200 mg/kg), with 6 mice in each group. Mice in the SHAM group underwent vascular isolation, but no […] was administered, and no treatment was given before or after surgery. The model group mice were constructed with ischemic MCAO models, and no treatment was given before and after surgery. The drug administration group was treated with compound 2 on the basis of the model group. Mice with a neurological score of 0 after reperfusion and those that died before 72 hours post-surgery were excluded. The drugs were administered through the tail vein at 0, 1, and 2 days after reperfusion. The SHAM group and MCAO group were given equal volumes of saline.
The cerebral infarction volumes of the sham-hand group (SHAM), model group (MCAO), compound 2 (50 mg/kg) group, compound 2 (100 mg/kg) group, and compound 2 (200 mg/kg) group in Example 2 were detected by TTC staining. […] The cerebral infarction volumes of mice in the different concentration groups were different.

The test system of assay [4] is MCAO model mice. Put plainly: Zea-Longa neurological function score in MCAO model mice. The protocol: as §4
The neurological function score reflects the neurological injury status of MCAO model mice. After 24 hours of modeling, the neurological function score was performed (refer to the Zea-Longa scoring screening method). Mice with scores of 1-3 were successfully modeled, and those with scores of 0 and 4 were excluded.
In this experiment, the Zea-Longa scoring method was used to score the sham hand group (SHAM), model group (MCAO), compound 2 (50 mg/kg) group, compound 2 (100 mg/kg) group, and compound 2 (200 mg/kg) group. The main scoring time points were before surgery, day 1, day 2, and day 3.

In assay [5] the test system is IL-6. Put plainly: RT-qPCR of IL-6 mRNA in brain tissue. The settings on record: 72 h, three days of administration, compound 2 100 mg/kg, P<0.01. The protocol:
as §1, with “The administration time for animal behavior tests was seven times at 0 h, 1 day, 2 days, 3 days, 4 days, 5 days, and 6 days after reperfusion, while the administration time for other experiments was three times at 0 h, 1 day, and 2 days after reperfusion. The drug was administered through the tail vein, and the sham operation group and model group were given equal amounts of saline.” left out
as §2, §3

Assay [6] deals with MCAO model mice. The assay is described as follows: Modified neurological severity score (mNSS, 14-point scale). The procedure: as §1
In addition, the neurological deficit score (mNSS) method shown in the table above was used to score the neurological function of each group of mice on a 14-point scale. Neurobehavioral scores were assessed in mice of the SHAM group, MCAO group, Compound 2 group, and Compound 1 group on day 1, 3, 5, and 7 post-surgery. […]

As to `O=C(O)c1cc(OP(=O)(O)O)ccc1OP(=O)(O)O` [compound 2], the “Mortality rate (survival curve) compared with MCAO group” value in assay [1] is recorded as “significantly improved the mortality rate”. Further, the “IL-1β mRNA expression compared with MCAO group” value in assay [2] is listed as “significantly reduced”. Also, the “Cerebral infarction volume reduced compared with the model group” value in assay [3] (100 mg/kg via tail vein at 0, 1, 2 days after reperfusion, P<0.001) is reported as 27.17±5.18%; in assay [3] (200 mg/kg via tail vein at 0, 1, 2 days after reperfusion, P<0.05), 16.19±3.56%. Also, the “Cerebral infarction volume smaller at 100 mg/kg compared with 50 mg/kg” value in assay [3] (100 mg/kg vs 50 mg/kg of compound 2, mean±SEM, P<0.05) stood at 26.22±4.68%. Further, the “Zea-Longa neurological score compared with the model group” value was “no significant difference” in assay [4] (24 hours of reperfusion, 50, 100, 200 mg/kg via tail vein); “most significant decrease” in assay [4] (after 48 hours, 100 mg/kg via tail vein, P<0.001); “decreased significantly” in assay [4] (after 48 hours, three concentrations (50, 100, 200 mg/kg) via tail vein); “significantly decreased” in assay [4] (after 72 hours of reperfusion, 100 mg/kg via tail vein, P<0.001). The “Decrease of IL-6 mRNA expression compared with MCAO group” value in assay [5] is listed as 51±8%. In addition, the “Neurological function (mNSS 14-point scale) compared with the compound 1 group” value in assay [6] (compound 2 100 mg/kg vs compound 1 50 mg/kg) was “significantly improved”. The “Neurological function (mNSS 14-point scale) compared with MCAO group” value in assay [6] (day 1 to day 7 of reperfusion, 100 mg/kg tail vein) is reported as “improved significantly”.
